The values that follow come from ChEMBL document CHEMBL4477225, “Development of a cell viability assay to assess drug metabolite structure-toxicity relationships” (Bioorg Med Chem Lett, 2016).

Conditions in all cases: recombinant enzyme
For data set [1], the target named is T1, Cytochrome P450 3A4 (Homo sapiens, UniProt P08684). The data set can be described thus: Drug activation in human Hep3B cells assessed as human CYP3A4-mediated drug metabolism-induced cytotoxicity measured as decrease in cell viability at 45.8 uM pre-incubated with BSO for 18 hrs followed by incubation with compound for 3 hrs in presence of NADPH measured after 24 hrs in absence of compound, CYP3A4 and NADPH by cell titer-glo luminescence assay relative to BSO alone. Format: ADME, cell-based.

In data set [2] the target is T2, Cytochrome P450 2D6 (Homo sapiens, UniProt P10635). Kind of data set: Drug activation in human Hep3B cells assessed as human CYP2D6-mediated drug metabolism-induced cytotoxicity measured as decrease in cell viability at 54.3 uM pre-incubated with BSO for 18 hrs followed by incubation with compound for 3 hrs in presence of NADPH measured after 24 hrs in absence of compound, CYP3A4 and NADPH by cell titer-glo luminescence assay relative to BSO alone. Type of data set: ADME, cell-based.

In data set [3] the target is T3, Cytochrome P450 2C9 (Homo sapiens, UniProt P11712). The data set can be described thus: Drug activation in human Hep3B cells assessed as human CYP2C9-mediated drug metabolism-induced cytotoxicity measured as decrease in cell viability at 44 uM pre-incubated with BSO for 18 hrs followed by incubation with compound for 3 hrs in presence of NADPH measured after 24 hrs in absence of compound, CYP3A4 and NADPH by cell titer-glo luminescence assay relative to BSO alone. Type of data set: ADME, cell-based.

The target of data set [4] is T2, Cytochrome P450 2D6. The data set can be described thus: Drug activation in human Hep3B cells assessed as human CYP2D6-mediated drug metabolism-induced cytotoxicity measured as decrease in cell viability at 5.8 uM pre-incubated with BSO for 18 hrs followed by incubation with compound for 3 hrs in presence of NADPH measured after 24 hrs in absence of compound, CYP3A4 and NADPH by cell titer-glo luminescence assay relative to BSO alone. Format: ADME, cell-based.

Data set [5] deals with T1, Cytochrome P450 3A4. Kind of data set: Drug activation in human Hep3B cells assessed as human CYP3A4-mediated drug metabolism-induced cytotoxicity measured as decrease in cell viability at 53 uM pre-incubated with BSO for 18 hrs followed by incubation with compound for 3 hrs in presence of NADPH measured after 24 hrs in absence of compound, CYP3A4 and NADPH by cell titer-glo luminescence assay relative to BSO alone. Format: ADME, cell-based.

Data set [6] has as its target T3, Cytochrome P450 2C9. Kind of data set: Drug activation in human Hep3B cells assessed as human CYP2C9-mediated drug metabolism-induced cytotoxicity measured as decrease in cell viability at 47.3 uM pre-incubated with BSO for 18 hrs followed by incubation with compound for 3 hrs in presence of NADPH measured after 24 hrs in absence of compound, CYP3A4 and NADPH by cell titer-glo luminescence assay relative to BSO alone. Format: ADME, cell-based.

For data set [7], the target named is T2, Cytochrome P450 2D6. The data set can be described thus: Drug activation in human Hep3B cells assessed as human CYP2D6-mediated drug metabolism-induced cytotoxicity measured as decrease in cell viability at 15.6 uM pre-incubated with BSO for 18 hrs followed by incubation with compound for 3 hrs in presence of NADPH measured after 24 hrs in absence of compound, CYP3A4 and NADPH by cell titer-glo luminescence assay relative to BSO alone. Format: ADME, cell-based.

In data set [8] the target is T1, Cytochrome P450 3A4. The data set can be described thus: Drug activation in human Hep3B cells assessed as human CYP3A4-mediated drug metabolism-induced cytotoxicity measured as decrease in cell viability at 16.3 uM pre-incubated with BSO for 18 hrs followed by incubation with compound for 3 hrs in presence of NADPH measured after 24 hrs in absence of compound, CYP3A4 and NADPH by cell titer-glo luminescence assay relative to BSO alone. Type of data set: ADME, cell-based.

Data set [9] concerns the target T3, Cytochrome P450 2C9. The data set can be described thus: Drug activation in human Hep3B cells assessed as human CYP2C9-mediated drug metabolism-induced cytotoxicity measured as decrease in cell viability at 17.1 uM pre-incubated with BSO for 18 hrs followed by incubation with compound for 3 hrs in presence of NADPH measured after 24 hrs in absence of compound, CYP3A4 and NADPH by cell titer-glo luminescence assay relative to BSO alone. Format: ADME, cell-based.

Data set [10] deals with T2, Cytochrome P450 2D6. The data set can be described thus: Drug activation in human Hep3B cells assessed as human CYP2D6-mediated drug metabolism-induced cytotoxicity measured as decrease in cell viability at 31.6 uM pre-incubated with BSO for 18 hrs followed by incubation with compound for 3 hrs in presence of NADPH measured after 24 hrs in absence of compound, CYP3A4 and NADPH by cell titer-glo luminescence assay relative to BSO alone. Format: ADME, cell-based.

For data set [11], the target named is T3, Cytochrome P450 2C9. Kind of data set: Drug activation in human Hep3B cells assessed as human CYP2C9-mediated drug metabolism-induced cytotoxicity measured as decrease in cell viability at 224.2 uM pre-incubated with BSO for 18 hrs followed by incubation with compound for 3 hrs in presence of NADPH measured after 24 hrs in absence of compound, CYP3A4 and NADPH by cell titer-glo luminescence assay relative to BSO alone. Type of data set: ADME, cell-based.

In data set [12] the target is T1, Cytochrome P450 3A4. The data set can be described thus: Drug activation in human Hep3B cells assessed as human CYP3A4-mediated drug metabolism-induced cytotoxicity measured as decrease in cell viability at 14 uM pre-incubated with BSO for 18 hrs followed by incubation with compound for 3 hrs in presence of NADPH measured after 24 hrs in absence of compound, CYP3A4 and NADPH by cell titer-glo luminescence assay relative to BSO alone. Type of data set: ADME, cell-based.

In data set [13] the target is T3, Cytochrome P450 2C9. Kind of data set: Drug activation in human Hep3B cells assessed as human CYP2C9-mediated drug metabolism-induced cytotoxicity measured as decrease in cell viability at 71.3 uM pre-incubated with BSO for 18 hrs followed by incubation with compound for 3 hrs in presence of NADPH measured after 24 hrs in absence of compound, CYP3A4 and NADPH by cell titer-glo luminescence assay relative to BSO alone. Format: ADME, cell-based.

In data set [14] the target is T1, Cytochrome P450 3A4. Kind of data set: Drug activation in human Hep3B cells assessed as human CYP3A4-mediated drug metabolism-induced cytotoxicity measured as decrease in cell viability at 300 uM pre-incubated with BSO for 18 hrs followed by incubation with compound for 3 hrs in presence of NADPH measured after 24 hrs in absence of compound, CYP3A4 and NADPH by cell titer-glo luminescence assay relative to BSO alone.

The target of data set [15] is T2, Cytochrome P450 2D6. Kind of data set: Drug activation in human Hep3B cells assessed as human CYP2D6-mediated drug metabolism-induced cytotoxicity measured as decrease in cell viability at 300 uM pre-incubated with BSO for 18 hrs followed by incubation with compound for 3 hrs in presence of NADPH measured after 24 hrs in absence of compound, CYP3A4 and NADPH by cell titer-glo luminescence assay relative to BSO alone.

SMILES strings stand for the structures.

T2 sequence (P10635 whole entry): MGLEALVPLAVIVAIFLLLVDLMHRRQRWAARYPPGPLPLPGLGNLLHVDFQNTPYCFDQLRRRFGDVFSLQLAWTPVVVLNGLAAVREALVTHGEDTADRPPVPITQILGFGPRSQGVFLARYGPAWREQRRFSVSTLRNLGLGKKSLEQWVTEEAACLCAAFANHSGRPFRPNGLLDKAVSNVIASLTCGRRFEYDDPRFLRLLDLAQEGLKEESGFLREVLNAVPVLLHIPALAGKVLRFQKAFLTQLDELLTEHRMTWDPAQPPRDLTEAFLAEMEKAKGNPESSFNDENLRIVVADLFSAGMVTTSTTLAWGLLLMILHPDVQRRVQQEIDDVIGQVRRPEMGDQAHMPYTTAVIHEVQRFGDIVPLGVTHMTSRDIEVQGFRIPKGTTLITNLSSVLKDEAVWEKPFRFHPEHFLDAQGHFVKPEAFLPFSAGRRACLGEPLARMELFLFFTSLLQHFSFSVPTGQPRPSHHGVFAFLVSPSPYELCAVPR
T1 sequence (P08684 whole entry): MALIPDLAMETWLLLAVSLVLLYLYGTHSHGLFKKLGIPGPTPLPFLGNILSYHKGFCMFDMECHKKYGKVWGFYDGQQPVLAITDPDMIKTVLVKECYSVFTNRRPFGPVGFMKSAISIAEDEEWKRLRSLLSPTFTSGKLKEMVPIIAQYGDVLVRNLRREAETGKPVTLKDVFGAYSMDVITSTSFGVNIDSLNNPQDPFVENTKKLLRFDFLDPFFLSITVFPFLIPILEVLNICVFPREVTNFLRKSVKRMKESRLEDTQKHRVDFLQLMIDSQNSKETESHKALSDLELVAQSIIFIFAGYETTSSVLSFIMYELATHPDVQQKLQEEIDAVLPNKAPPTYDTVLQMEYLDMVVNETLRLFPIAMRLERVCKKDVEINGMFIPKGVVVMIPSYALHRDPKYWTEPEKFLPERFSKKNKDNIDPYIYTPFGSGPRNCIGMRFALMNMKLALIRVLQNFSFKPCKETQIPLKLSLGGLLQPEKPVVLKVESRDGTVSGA
T3 sequence (P11712 whole entry): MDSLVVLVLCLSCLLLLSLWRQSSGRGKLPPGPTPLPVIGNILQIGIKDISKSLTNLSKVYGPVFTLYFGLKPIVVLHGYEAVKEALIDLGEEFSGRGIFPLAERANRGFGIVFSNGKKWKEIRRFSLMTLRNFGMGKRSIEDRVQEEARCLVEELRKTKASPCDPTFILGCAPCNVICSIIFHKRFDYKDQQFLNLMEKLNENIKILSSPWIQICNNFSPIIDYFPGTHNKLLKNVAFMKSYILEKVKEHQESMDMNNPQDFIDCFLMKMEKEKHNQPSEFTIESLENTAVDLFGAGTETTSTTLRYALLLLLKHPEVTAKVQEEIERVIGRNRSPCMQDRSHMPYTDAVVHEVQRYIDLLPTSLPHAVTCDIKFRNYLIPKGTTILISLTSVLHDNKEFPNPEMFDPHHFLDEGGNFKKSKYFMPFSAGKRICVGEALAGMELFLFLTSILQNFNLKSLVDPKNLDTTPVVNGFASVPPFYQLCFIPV

For the compound `CC(C)(C)NC(=O)[C@@H]1C[C@@H]2CCCC[C@@H]2CN1C[C@@H](O)[C@H](Cc1ccccc1)NC(=O)[C@H](CC(N)=O)NC(=O)c1ccc2ccccc2n1`, the “fold change (FC)” value in data set [1] is listed as 0.8; in [2], 0.7; in data set [3] it was 0.8.

On to `CCc1oc2ccccc2c1C(=O)c1ccc(O)cc1` [BENZARONE], for which the “fold change (FC)” value in data set [4] came to 7.5; in [5], 0.8; in data set [6] it was 0.9.

With `CCc1oc2ccccc2c1C(=O)c1cc(I)c(O)c(I)c1` [BENZIODARONE], the “fold change (FC)” value in data set [7] is 2.3; in [8], 2.2; in data set [9], 2.1.

Take `CC(O)(CS(=O)(=O)c1ccc(F)cc1)C(=O)Nc1ccc(C#N)c(C(F)(F)F)c1` (stereo not given) [BICALUTAMIDE]: the “fold change (FC)” value in data set [10] worked out at 0.7; in data set [11], 0.1; in data set [12] it was 1.7.

Take `CC(C(=O)O)c1cccc(Oc2ccccc2)c1` (stereo not given) [FENOPROFEN]: the “fold change (FC)” value in data set [13] is on record as 4.2. For the same compound, the FC in [14] and in [15] was 1 in each case.
